From PubChem BioAssay (NCI)
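Method: 48-hour compound exposure of cells in 96-well plates, five concentrations, linear interpolation of endpoints. The concentration for 50% growth inhibition is given as GI50. Definition used: TGI = concentration required for complete inhibition of growth.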

Key:
Test in all cases: NCI tumour cell line growth inhibition, 48 h
786-0 renal = system: 786-0 renal
EKVX NSCLC = system: EKVX NSCLC
SNB-19 CNS = system: SNB-19 CNS
BT-549 breast = system: BT-549 breast
KM12 colon = system: KM12 colon
MDA-MB-231 breast = system: MDA-MB-231 breast
HCC-2998 colon = system: HCC-2998 colon
SK-OV-3 ovarian = system: SK-OV-3 ovarian
A498 renal = system: A498 renal
UACC-257 melanoma = system: UACC-257 melanoma

SMILES	GI50 (786-0 renal)	TGI (786-0 renal)	GI50 (EKVX NSCLC)	TGI (EKVX NSCLC)	GI50 (SNB-19 CNS)	TGI (SNB-19 CNS)	GI50 (BT-549 breast)	TGI (BT-549 breast)	GI50 (KM12 colon)	TGI (KM12 colon)	GI50 (MDA-MB-231 breast)	TGI (MDA-MB-231 breast)	GI50 (HCC-2998 colon)	TGI (HCC-2998 colon)	GI50 (SK-OV-3 ovarian)	TGI (SK-OV-3 ovarian)	GI50 (A498 renal)	TGI (A498 renal)	GI50 (UACC-257 melanoma)	TGI (UACC-257 melanoma)
CCC(=O)c1c(C(F)(F)F)n([O-])c2ccccc2[n+]1=O	1.66 µM	8.17 µM	2 µM	7.32 µM	5.07 µM	32.6 µM	2 µM	6.13 µM	1.86 µM	5.86 µM	2.23 µM	7.93 µM	1.68 µM	6.31 µM	3.05 µM	14 µM	2.67 µM	9.03 µM	10.8 µM	35.3 µM
O=C1NC(SCc2ccc(F)cc2)=N/C1=C/c1cccc(OCc2ccc(Cl)cc2)c1	2.88 µM	8.8 µM	8.86 µM	> 100 µM	21.7 µM	> 100 µM	23.4 µM	> 100 µM	> 100 µM	> 100 µM	24.6 µM	> 100 µM	51.1 µM	> 100 µM	36.9 µM	> 100 µM	3.53 µM	26.2 µM	> 100 µM	> 100 µM
c1ccc(/C(=N\Nc2ccc3ccccc3n2)c2ccccn2)cc1	0.509 µM	4.35 µM	0.281 µM	8.39 µM	1.29 µM	> 59.3 µM	0.116 µM	1.72 µM	0.989 µM	13.5 µM	0.839 µM	43.4 µM	0.904 µM	16.7 µM	0.612 µM	18 µM	2.92 µM	80.4 µM	0.33 µM	3.48 µM
C=C1C(=O)O[C@H]2[C@H]1CC/C(CNC(=O)/C=C/c1ccc(Cl)cc1Cl)=C\CC[C@@]1(C)O[C@@H]21	1.2 µM	2.56 µM	1.55 µM	3.1 µM	3.24 µM	14.2 µM	0.975 µM	2.59 µM	1.62 µM	3.03 µM	1.35 µM	3.18 µM	1.56 µM	2.98 µM	3.33 µM	13 µM	1.47 µM	3.87 µM	1.21 µM	2.58 µM
CC(C)=CCc1cc(C2COc3cc4c(c(O)c3C2=O)C=CC(C)(C)O4)c(O)cc1O (stereo not given)	–	36.7 µM	–	27.5 µM	–	40.7 µM	–	33.3 µM	–	32.7 µM	–	27.5 µM	–	32.7 µM	–	29.8 µM	–	33.2 µM	–	27.4 µM
O=C(Cn1c2ccccc2c2ccncc21)N/N=C\c1ccc2ccccc2c1	13.8 µM	30 µM	24.8 µM	> 100 µM	17.7 µM	42.4 µM	15.6 µM	36.5 µM	29.6 µM	> 100 µM	14.5 µM	32.9 µM	35.9 µM	> 100 µM	18.2 µM	39.4 µM	27.5 µM	80.8 µM	42.1 µM	> 100 µM
COc1ccc(CN=C(N)N=C(N)N)cc1OC	> 1000 µM	> 1000 µM	40.1 µM	> 1000 µM	482 µM	> 1000 µM	260 µM	> 1000 µM	> 1000 µM	> 1000 µM	> 1000 µM	> 1000 µM	> 1000 µM	> 1000 µM	> 1000 µM	> 1000 µM	151 µM	> 1000 µM	448 µM	> 1000 µM
